Laboratory results published in paper PMC9872677, “Boronic Acid Transition State Inhibitors as Potent Inactivators of KPC and CTX-M β-Lactamases: Biochemical and Structural Analyses” (Antimicrobial Agents and Chemotherapy, 2023).
Converted amounts (≈) assume the structure as drawn. Like-named read-outs stand apart in the source and are kept apart here.

Tests used:
KPC-2 β-lactamase [1] = target: T1, KPC-2 β-lactamase (Klebsiella pneumoniae, UniProt Q9F663); test: Off rate (koff) after preincubation with saturating BATSI; format: biochemical
T1 construct: made in house; host or cells: E. coli BL21 Star
Description: The koff value was determined by mixing KPC-2 or CTX-M-96 with 100 μM nitrocefin after preincubating 5 min with a saturating amount of each BATSI, and progress curves were fitted to a single exponential decay equation as previously described ([12][–][14]).

CTX-M-96 β-lactamase [2] = target: T2, CTX-M-96 β-lactamase (Escherichia coli, UniProt Q9EXV5, N92S); test: as above; format: biochemical
KPC-2 β-lactamase [3] = target: T1, KPC-2 β-lactamase; test: On rate (k2/K) from progress curves with nitrocefin; format: biochemical
Description: (§1) To determine the on rate (k2/K), progress curves were obtained by incubating KPC-2 or CTX-M-96 with increasing concentrations of BATSIs and 100 μM nitrocefin as the reporter substrate. Progress curves were fitted to equation 2 to obtain kobs values, by nonlinear least-squares fitting of the data, and k2/K was determined from equation 3. (2) A = vf * t + (v0 − vf) × (1 − e^−kobst)/kobserved + A0 (3) kobserved = k−2 + (k2/K) × ([I]/(1 + ([S]/Km nitrocefin))) In equation 2, A is absorbance at 482 nm, vf is final velocity, t is time, v0 is initial velocity, and A0 is initial absorbance at 482 nm. In equation 3, [I] is the concentration of BATSI and [S] is the concentration of nitrocefin. The data were plotted as kobs versus [BATSI], and the k2/K value was obtained by correcting the value for the slope of the line for the concentration and affinity of nitrocefin (Equation 4). (4) k2/Kcorrected = k2/Kobserved × (([S]/Km nitrocefin) + 1)

CTX-M-96 β-lactamase [4] = target: T2, CTX-M-96 β-lactamase; test: as above; format: biochemical
Description: as §1

KPC-2 β-lactamase [5] = target: T1, KPC-2 β-lactamase; test: IC50 after 5-min preincubation, nitrocefin reporter substrate; format: biochemical; details: 100 μM nitrocefin
Description: (§2) Using nitrocefin as an indicator substrate and 5 min incubation before steady-state velocities were determined, 50% inhibitory concentrations (IC50s) in the nanomolar range for KPC-2 and CTX-M-96 β-lactamases were measured, and both inhibitors bound CTX-M-96 with greater affinity than KPC-2 (Table 1). The IC50 was approximatively 40-fold lower for CTX-M-96 than KPC-2 for both inhibitors. The IC50 of S02030 is 2 nM against CTX-M-96 and 80 nM against KPC-2 ([12]). […] The on rates (k2/K) for S02030 and MB_076 versus CTX-M-96 were 24,000 M^−1 s^−1 and 3,900 M^−1 s^−1, respectively, and those for KPC-2 were 12,000 M^−1 s^−1 and 1,200 M^−1 s^−1 respectively (Table 1). […] The k2/K values for both BATSIs against CTX-M-96 were lower than those of avibactam ([16]). […] Kinetic plots for CTX-M-96–S02030, CTX-M-96–MB_076, and KPC-2–MB_076 are shown in Fig. S1 in the supplemental material.
(§3) The inhibition by BATSIs is assumed to follow a reversible mechanism according to the following scheme: (1) E + I ↔ E:I ↔ E-I^*↔ E-I^** where E represents the enzyme, I the BATSI, E:I the Michaelis complex, E-I* the enzyme-inhibitor complex as the acylation transition state analog, and E-I** the deacylation transition state intermediate, according to previous models ([15]). The half-maximal inhibitory concentration (IC50) was measured after a 5-min preincubation of the enzyme and each BATSI at increasing concentrations, with 100 μM nitrocefin as the reporter substrate, as previously described ([12], [13]).

CTX-M-96 β-lactamase [6] = target: T2, CTX-M-96 β-lactamase; test: as above; format: biochemical; details: 100 μM nitrocefin
Description: as §2, §3

[7] = Solubility as DMSO stock solution; format: physicochemical; details: organic solvent or mixture
[8] = test system: pan-drug-resistant KPC-producing K. pneumoniae clinical isolate; design: method as in our unpublished data; details: paired with cefepime; separate paper and previous results, ref our unpublished data; cited from earlier work
[9] = test system: Escherichia coli DH10B carrying blaSHV, blaKPC-2, and blaKPC-3 variants; design: method as in PMID 26729496; details: previous studies; cited from earlier work
KPC-2 β-lactamase [10] = target: T1, KPC-2 β-lactamase; design: method as in PMID 26729496; details: published previously; cited from earlier work
KPC-2 β-lactamase [11] = target: T1, KPC-2 β-lactamase; design: method as in PMID 26729496; details: off rate, published previously; cited from earlier work
CTX-M-96 = target: CTX-M-96; design: method as in PMID 26228623; details: previously reported; cited from earlier work

Row | SMILES | Koff (KPC-2 β-lactamase [1]) [s⁻¹] | Koff (CTX-M-96 β-lactamase [2]) | k2/K (KPC-2 β-lactamase [3]; on rate) | kinact/KI (KPC-2 β-lactamase [3]; on rate) [M⁻¹ s⁻¹] | k2/K (CTX-M-96 β-lactamase [4]) | IC50 (KPC-2 β-lactamase [5]) [nM] | IC50 (CTX-M-96 β-lactamase [6]) [nM] | solubility [7] [mM] | restoration of cefepime activity [8] | k2/K fold higher compared to MB_076 (KPC-2 β-lactamase [3]) [fold] | restoration of susceptibility combined with cefepime [9] | IC50 (KPC-2 β-lactamase [10]) [nM] | Koff (KPC-2 β-lactamase [11]) | inactivation efficiency value (kinact/KI) (CTX-M-96)
1 | Nc1nnc(SCC(=O)N[C@@H](Cn2cc(C(=O)O)nn2)B(O)O)s1 [MB_076] | 0.001 | (0.62 ± 0.05) × 10^−3 s^−1 | 1,200 M^−1 s^−1 | 1200 | 3,900 M^−1 s^−1 | 135 ± 20 | 4 ± 0.5 | 1000 (≈ 373 mg/mL) | restore cefepime activity |  |  |  |  | 
2 | O=C(Cc1cccs1)N[C@@H](Cn1cc(C(=O)O)nn1)B(O)O [S02030] |  | (0.75 ± 0.03) × 10^−3 s^−1 |  |  | 24,000 M^−1 s^−1 |  | 2 ± 0.2 | 250 (≈ 81 mg/mL) | restore cefepime activity | 10 | restored susceptibility | 80 ± 2 | (0.46 ± 0.02) × 10^−3 s^−1 | 
3 | O=C(O)[C@H]1/C(=C/CO)O[C@@H]2CC(=O)N21 [clavulanic acid] |  |  |  |  |  |  |  |  |  |  |  |  |  | 45,000 M^−1 s^−1
